{"source": "patent US20190017029A1", "about": "“Generation of Expandable Cardiovascular Progenitor Cells” (The J. David Gladstone Institutes, a testament trust …, priority 2016, published 2019)", "format_in_all_cases": "cell-based, mouse", "key": {"ieCPCs": {"test_system": "ieCPCs", "experiment": "Cardiac (CM) differentiation of ieCPCs, cTnT expression", "details": "20 ng/ml BMP4 or 5 μM IWP2 versus basal differentiation medium", "method": "For cardiac differentiation, ieCPCs were passaged onto 96-well matrigel-coated plates at a density of […] cells/cm^2 and cultured in serum-free differentiation (SFD) medium for 10 days. IWP2 (5 μM) was added to SFD medium during the first six days to increase the yield of cardiomyocytes (CMs) in the functional characterization assays.\nDifferentiation efficiency of each cell type was calculated with qPCR, flow cytometry, and/or an In Cell Analyzer 2000 (General Electric Healthcare).\nAfter washing cells three times with PBS, the cells were incubated with isotype-matched Alexa Fluorescence-conjugated secondary antibodies (Invitrogen) for 1 hour at room temperature. […] The expression of cTnT (measured by multiplying staining intensity and area) and Isl1 or α-SMA (percentage in total cells) were monitored and analyzed by an IN Cell Analyzer 2000.\nTo detect intracellular antigens, dissociated cells were fixed and permeabilized with a BD Cytofix/Cytoperm™ Fixation/Permeabilization Kit (BD Biosciences), and then incubated with antibodies for cTnT (MS-295-P1 Thermo Scientific; 1:200) and α-SMA (A-2547, Sigma-Aldrich; 1:200) at 4° C. overnight. After three washes, cells were incubated with isotype-matched Alexa Fluorescence-conjugated secondary antibodies (Invitrogen) for 1 hour at room temperature and detected by an LSR II Flow Cytometer (BD Biosciences)."}, "ieCPC-SMCs": {"test_system": "ieCPC-SMCs", "experiment": "Contractile assay of smooth muscle cells in vitro", "details": "100 μM carbachol; seen in primary SMCs, not in undifferentiated ieCPCs", "method": "ieCPCs, ieCPC-SMCs, and primary SMCs were treated with carbachol (100 μM, Sigma-Aldrich) and monitored with a Zeiss Axio Observer microscope in a time-lapse manner at 10-minute intervals for 1 hour. Cell-surface areas were then calculated with ImageJ software."}, "ieCPC-CMs": {"test_system": "ieCPC-CMs", "experiment": "Beating frequency and Ca2+ transients in ieCPC-CMs, pharmacological studies", "method": "Contracting cardiomyocytes derived from ieCPCs (ieCPC-CMs) were dispersed by first treating cells with Collagenase B for 5-10 min and then with Accutase for 5 min. Dissociated cells were replated onto matrigel-coated coverslips (Warner Instruments). After visible beating was reconfirmed, the coverslips were loaded with the Ca^2+-sensitive fluorescent indicator Fluo-4 (see below), and then placed in a superfusion bath (Warner Instruments) on a Nikon TiS inverted microscope equipped with a microfluorometer (lonOptix). Superfusion solutions were warmed to 30° C. with a superfusion system and heated perfusion pencil (ValveLink, AutoMate Scientific).\nThe ieCPC-CMs on coverslips were loaded with Fluo-4 AM in a 1:10 mixture of the indicator dissolved in dry dimethyl sulfoxide at 5 mM, plus Powerload concentrate (Life Technologies). This mixture was diluted 100-fold into extracellular Tyrode's solution and substituted for culture medium in dishes containing coverslips (final indicator concentration, 5 μM). […] Fluo-4 fluorescence transients were recorded with a standard filter set with excitation and emission centered on 480 nm and 535 nm, respectively (Chroma Technology).\nFluorescence was obtained from contracting cells plus a cell-free border using a cell-framing adaptor (IonOptix). Background fluorescence, recorded after removing the cell(s) from the field of view, was subtracted from all recordings. […] Background-corrected fluorescence transients were expressed relative to the diastolic fluorescence between spontaneous APs and were considered to reflect underlying changes in intracellular Ca^2+ concentration. Unless stated, reagents were from Sigma Chem. Co. Pharmacological studies were conducted on the spontaneous fluorescence transients of non-patch-clamped myocytes, and, to maximize coverslip usage, pharmacological agents were applied locally (only to the cell or cluster of interest) with the perfusion pencil."}, "Flk-1^+/PdgfR-α^+ cells": {"test_system": "Flk-1^+/PdgfR-α^+ cells", "experiment": "Flow cytometry of Flk-1+/PdgfR-α+ cells during CASD cardiac reprogramming of 2nd MEFs treated with BACS", "details": "NU6140 4 μM along with BACS from day 8; day 14", "method": "A Cell-Activation and Signaling-Directed (CASD) system-based cardiac reprogramming was conducted using methods described by Efe et al. (2011). Briefly, 2nd MEFs at passage 3 were seeded onto geltrex (Gibco)-coated plates at a density of 2.5×10^4 cells/well of a 12-well plate in MEF medium (day −2). Doxycycline (DOX; 2 μg/ml, Sigma-Aldrich) was added into the medium one day later (day −1) and the cells were cultured for another day. Medium was then changed to reprogramming medium (knockout DMEM supplemented with 5% knockout serum replacement (KSR), 15% embryonic stem cell (ESC)-qualified FBS, 1× Glutamax, 1×NEAA, 0.1 mM β-mercaptoethanol (β-ME), 1% ESC-qualified nucleosides (Millipore), 0.5 μM Jak inhibitor 1 (JI1; Millipore), and 2 μg/ml DOX) at day 0. This medium was renewed every 2 days. […]\nOn day 8, the medium was switched to ieCPC basal medium (Advanced DMEM/F12: Neural basal (1:1) supplemented with 1×N2, 1×B27 without Vitamin A, 1× Glutamax, 1×NEAA, 0.05% bovine serum albumin (BSA), and 0.1 mM β-ME) supplemented with BACS (5 ng/ml BMP4, 10 ng/ml Activin A, 3 μM CHIR99021, and 2 μM SU5402 (Tocris Bioscience)). JI1 (0.5 μM) was included to suppress the establishment of pluripotency until the cells were ready for purification at day 13. […]"}}}
{"molecule": "Cc1ccc2nc(NC(=O)CSc3nc4c(c(=O)n3-c3ccccc3)SCC4)sc2c1", "note": "[IWP2]", "values": [{"measurement": "cardiac differentiation of ieCPCs (cTnT)", "setting": "ieCPCs", "result": "dramatically enhanced"}]}
{"molecule": "C[N+](C)(C)CCOC(N)=O", "note": "[carbachol]", "values": [{"measurement": "contraction of ieCPC-SMCs", "setting": "ieCPC-SMCs", "result": "induced contraction"}, {"measurement": "effect on the isoproterenol-induced increase of frequency", "setting": "ieCPC-CMs; 10 μM carbachol", "result": "blocked"}]}
{"molecule": "CC(C)NCC(O)c1ccc(O)c(O)c1", "note": "(stereo not shown) [isoproterenol]", "values": [{"measurement": "frequency of cell contraction and spontaneous Ca2+ transients", "setting": "ieCPC-CMs; 1 μM isoproterenol", "result": "significantly increased"}]}
{"molecule": "CCN(CC)C(=O)c1ccc(Nc2nc(OCC3CCCCC3)c3[nH]cnc3n2)cc1", "note": "[NU6140]", "values": [{"measurement": "ratio of Flk-1+/PdgfR-α+ cells", "setting": "Flk-1^+/PdgfR-α^+ cells", "result": "dramatically decreased"}]}
{"molecule": "Cn1c(=O)c2c(ncn2C)n(C)c1=O", "note": "[caffeine]", "values": [{"measurement": "Ca2+ transients (release from sarcoplasmic reticulum)", "setting": "ieCPC-CMs; 10 mM caffeine", "result": "elicited large Ca^2+ transients"}]}
{"molecule": "BMP4: member of the group of bone morphogenic proteins and a ventral mesoderm inducer (protein, UniProt P12644 293-408, looked up) Bone morphogenetic protein 4: SPKHHSQRARKKNKNCRRHSLYVDFSDVGWNDWIVAPPGYQAFYCHGDCPFPLADHLNSTNHAIVQTLVNSVNSSIPKACCVPTELSAISMLYLDEYDKVVLKNYQEMVVEGCGCR", "values": [{"measurement": "cardiac differentiation of ieCPCs (cTnT)", "setting": "ieCPCs", "result": "significantly impaired"}]}
